Experimental data as given in the supplement of paper PMC12463676, “Small-molecule dissolution of stress granules by redox modulation benefits ALS models” (Nature Chemical Biology, 2025).

Legend:
lipoamide = compound: NC(=O)CCCCC1CCSS1 [lipoamide]; assay: thermal stability z-score vs DMSO; higher = more thermally stabilized by treatment; settings: HeLa, lipoamide concentration 100 µM
Protocol: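 Cellular thermal proteome profiling in HeLa cells. Cells were treated with 100 µM lipoamide for 1 h, with or without 1 mM arsenate for a further 1 h, then heated to ten temperatures (37-66.3 °C), and soluble protein was quantified by TMT mass spectrometry relative to 0.1% DMSO controls. The thermal stability score (sum of log2 fold changes minus the abundance score) was transformed to a z-score; mean of n = 3 experiments.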

potassium arsenate = compound: O=[As]([O-])(O)O.[K+] [potassium arsenate]; assay: as above; settings: HeLa; arsenate concentration 1 mM
Protocol: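 Cellular thermal proteome profiling in HeLa cells treated with 1 mM arsenate for 1 h (DMSO pretreatment), heated to ten temperatures (37-66.3 °C). Soluble protein was quantified by TMT mass spectrometry relative to DMSO controls; the thermal stability score was transformed to a z-score; mean of n = 3 experiments.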

[1] = arsenate co-treatment: 1 mM arsenate 1 h
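Also: each temperature applied for 3 min, abundance score taken as mean log2 fold change at the two lowest temperatures, z-score obtained by mean subtraction and division by SD.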

MAPK9 (UniProt P45984)
thermal stability z-score (lipoamide; [1]): 0.00773 | thermal stability z-score (lipoamide; arsenate co-treatment: none): -0.817 | thermal stability z-score (potassium arsenate): -0.98

MAPK14 (UniProt Q16539)
UniProt Q16539, sequence (Q16539 whole entry): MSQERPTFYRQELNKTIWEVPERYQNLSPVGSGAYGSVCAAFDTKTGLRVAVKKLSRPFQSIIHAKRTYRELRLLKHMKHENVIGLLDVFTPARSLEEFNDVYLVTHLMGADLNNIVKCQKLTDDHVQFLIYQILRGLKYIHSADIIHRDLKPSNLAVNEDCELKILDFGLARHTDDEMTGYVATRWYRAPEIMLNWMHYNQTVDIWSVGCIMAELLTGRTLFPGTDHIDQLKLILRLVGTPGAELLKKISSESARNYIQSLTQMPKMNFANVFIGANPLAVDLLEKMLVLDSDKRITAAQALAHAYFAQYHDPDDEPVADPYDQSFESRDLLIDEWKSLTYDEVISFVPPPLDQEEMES
thermal stability z-score (lipoamide; [1]): 0.87 | thermal stability z-score (lipoamide; arsenate co-treatment: none): -0.0481 | thermal stability z-score (potassium arsenate): 0.772

MAPKAP1 (UniProt Q9BPZ7)
thermal stability z-score (lipoamide; [1]): 0.13 | thermal stability z-score (lipoamide; arsenate co-treatment: none): -0.0501 | thermal stability z-score (potassium arsenate): 0.0626

MAPKAPK2 (UniProt P49137)
thermal stability z-score (lipoamide; [1]): 0.451 | thermal stability z-score (lipoamide; arsenate co-treatment: none): 0.459 | thermal stability z-score (potassium arsenate): 0.48

MAPKAPK3 (UniProt Q16644)
thermal stability z-score (lipoamide; [1]): -0.203 | thermal stability z-score (lipoamide; arsenate co-treatment: none): -0.362 | thermal stability z-score (potassium arsenate): -0.508

MAPRE1 (UniProt Q15691)
thermal stability z-score (lipoamide; [1]): 0.796 | thermal stability z-score (lipoamide; arsenate co-treatment: none): 0.705 | thermal stability z-score (potassium arsenate): 0.154

MAPRE2 (UniProt Q15555)
thermal stability z-score (lipoamide; [1]): -0.858 | thermal stability z-score (lipoamide; arsenate co-treatment: none): 0.732 | thermal stability z-score (potassium arsenate): 1.11

MAPRE3 (UniProt Q9UPY8)
thermal stability z-score (lipoamide; [1]): 0.142 | thermal stability z-score (lipoamide; arsenate co-treatment: none): -0.216 | thermal stability z-score (potassium arsenate): -0.102

MARC1 (UniProt Q5VT66)
thermal stability z-score (lipoamide; [1]): 0.204 | thermal stability z-score (lipoamide; arsenate co-treatment: none): 0.806 | thermal stability z-score (potassium arsenate): 1.12

MARC2 (UniProt Q969Z3)
thermal stability z-score (lipoamide; [1]): 0.235 | thermal stability z-score (lipoamide; arsenate co-treatment: none): 0.311 | thermal stability z-score (potassium arsenate): 0.168

MARCH5 (UniProt Q9NX47)
thermal stability z-score (lipoamide; [1]): 0.842 | thermal stability z-score (lipoamide; arsenate co-treatment: none): -0.0503 | thermal stability z-score (potassium arsenate): 0.411

MARCH6 (UniProt O60337)
thermal stability z-score (lipoamide; [1]): -0.245 | thermal stability z-score (lipoamide; arsenate co-treatment: none): -0.44 | thermal stability z-score (potassium arsenate): -0.855

MARCKS (UniProt P29966)
thermal stability z-score (lipoamide; [1]): 0.62 | thermal stability z-score (lipoamide; arsenate co-treatment: none): 0.121 | thermal stability z-score (potassium arsenate): 0.943

MARCKSL1 (UniProt P49006)
thermal stability z-score (lipoamide; [1]): 0.667 | thermal stability z-score (lipoamide; arsenate co-treatment: none): 0.788 | thermal stability z-score (potassium arsenate): 0.248

MARK1 (UniProt Q9P0L2)
thermal stability z-score (lipoamide; [1]): -0.126 | thermal stability z-score (lipoamide; arsenate co-treatment: none): -0.153 | thermal stability z-score (potassium arsenate): 0.249

MARK2 (UniProt Q7KZI7)
UniProt Q7KZI7, sequence (Q7KZI7 whole entry): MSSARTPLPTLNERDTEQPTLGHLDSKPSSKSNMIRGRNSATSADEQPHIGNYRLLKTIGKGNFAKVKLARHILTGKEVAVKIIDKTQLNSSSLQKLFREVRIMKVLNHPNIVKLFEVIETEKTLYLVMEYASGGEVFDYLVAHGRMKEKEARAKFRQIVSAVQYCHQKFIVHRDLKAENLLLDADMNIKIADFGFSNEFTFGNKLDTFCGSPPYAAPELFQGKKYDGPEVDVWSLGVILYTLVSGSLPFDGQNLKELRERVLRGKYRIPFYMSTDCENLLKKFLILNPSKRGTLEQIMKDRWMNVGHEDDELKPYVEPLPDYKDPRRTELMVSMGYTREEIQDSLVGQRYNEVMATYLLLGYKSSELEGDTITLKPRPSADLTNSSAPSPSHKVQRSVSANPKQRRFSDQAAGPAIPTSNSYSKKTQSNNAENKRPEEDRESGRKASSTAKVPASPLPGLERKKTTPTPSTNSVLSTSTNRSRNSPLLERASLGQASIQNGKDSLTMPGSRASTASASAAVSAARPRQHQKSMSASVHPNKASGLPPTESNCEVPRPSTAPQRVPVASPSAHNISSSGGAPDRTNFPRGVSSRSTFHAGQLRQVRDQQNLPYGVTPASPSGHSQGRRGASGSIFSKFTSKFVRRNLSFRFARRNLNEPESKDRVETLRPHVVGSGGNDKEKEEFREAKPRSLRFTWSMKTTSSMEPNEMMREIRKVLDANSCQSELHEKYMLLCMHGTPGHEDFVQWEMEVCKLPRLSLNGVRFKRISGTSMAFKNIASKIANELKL
thermal stability z-score (lipoamide; [1]): -0.0322 | thermal stability z-score (lipoamide; arsenate co-treatment: none): 0.0698 | thermal stability z-score (potassium arsenate): 0.0503

MARK3 (UniProt P27448)
UniProt P27448, sequence (P27448 whole entry, looked up): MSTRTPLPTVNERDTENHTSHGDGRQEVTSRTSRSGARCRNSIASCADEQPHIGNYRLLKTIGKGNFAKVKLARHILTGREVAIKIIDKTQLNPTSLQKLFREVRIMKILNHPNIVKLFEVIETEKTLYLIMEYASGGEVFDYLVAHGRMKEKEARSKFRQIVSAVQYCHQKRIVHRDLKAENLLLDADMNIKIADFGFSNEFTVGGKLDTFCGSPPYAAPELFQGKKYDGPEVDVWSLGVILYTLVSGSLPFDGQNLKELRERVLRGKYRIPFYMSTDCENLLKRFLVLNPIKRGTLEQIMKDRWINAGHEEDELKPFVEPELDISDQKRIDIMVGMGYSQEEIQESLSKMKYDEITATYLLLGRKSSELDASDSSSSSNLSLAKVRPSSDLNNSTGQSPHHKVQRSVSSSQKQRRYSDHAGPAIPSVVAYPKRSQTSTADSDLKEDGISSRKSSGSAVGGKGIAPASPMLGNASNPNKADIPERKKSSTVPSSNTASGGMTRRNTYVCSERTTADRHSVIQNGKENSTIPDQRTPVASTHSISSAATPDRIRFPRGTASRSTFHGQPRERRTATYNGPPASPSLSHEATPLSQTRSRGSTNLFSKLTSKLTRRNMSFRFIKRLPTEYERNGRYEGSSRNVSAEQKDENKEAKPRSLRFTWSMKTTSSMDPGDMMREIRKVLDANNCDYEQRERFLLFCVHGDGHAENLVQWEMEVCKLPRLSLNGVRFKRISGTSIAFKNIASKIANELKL
thermal stability z-score (lipoamide; [1]): -0.0834 | thermal stability z-score (lipoamide; arsenate co-treatment: none): -0.0843 | thermal stability z-score (potassium arsenate): -0.0953

MARS2 (UniProt Q96GW9)
thermal stability z-score (lipoamide; [1]): 0.482 | thermal stability z-score (lipoamide; arsenate co-treatment: none): 0.957 | thermal stability z-score (potassium arsenate): 0.992

MARS (UniProt P56192)
thermal stability z-score (lipoamide; [1]): -1.37 | thermal stability z-score (lipoamide; arsenate co-treatment: none): -0.604 | thermal stability z-score (potassium arsenate): 0.22

MARVELD2 (UniProt Q8N4S9)
UniProt Q8N4S9, sequence (Q8N4S9 whole entry): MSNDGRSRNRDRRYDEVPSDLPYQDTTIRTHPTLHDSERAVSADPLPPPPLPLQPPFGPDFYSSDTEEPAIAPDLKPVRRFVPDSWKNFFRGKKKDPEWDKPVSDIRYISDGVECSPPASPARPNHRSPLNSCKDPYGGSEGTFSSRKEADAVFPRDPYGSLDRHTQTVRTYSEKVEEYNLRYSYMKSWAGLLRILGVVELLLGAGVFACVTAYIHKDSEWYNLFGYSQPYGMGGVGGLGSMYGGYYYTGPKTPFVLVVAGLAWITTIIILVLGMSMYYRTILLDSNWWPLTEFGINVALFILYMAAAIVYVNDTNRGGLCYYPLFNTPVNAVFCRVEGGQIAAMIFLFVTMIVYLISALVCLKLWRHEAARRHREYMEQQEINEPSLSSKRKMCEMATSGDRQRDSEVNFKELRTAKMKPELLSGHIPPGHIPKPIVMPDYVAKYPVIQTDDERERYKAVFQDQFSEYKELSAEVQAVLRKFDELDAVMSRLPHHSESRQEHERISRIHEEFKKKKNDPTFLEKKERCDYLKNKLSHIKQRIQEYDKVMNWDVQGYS
thermal stability z-score (lipoamide; [1]): -0.452 | thermal stability z-score (lipoamide; arsenate co-treatment: none): 0.477 | thermal stability z-score (potassium arsenate): -0.292

MAST2 (UniProt Q6P0Q8)
thermal stability z-score (lipoamide; [1]): -0.0733 | thermal stability z-score (lipoamide; arsenate co-treatment: none): -0.0383 | thermal stability z-score (potassium arsenate): 0.00193

MASTL (UniProt Q96GX5)
UniProt Q96GX5, sequence (Q96GX5 whole entry): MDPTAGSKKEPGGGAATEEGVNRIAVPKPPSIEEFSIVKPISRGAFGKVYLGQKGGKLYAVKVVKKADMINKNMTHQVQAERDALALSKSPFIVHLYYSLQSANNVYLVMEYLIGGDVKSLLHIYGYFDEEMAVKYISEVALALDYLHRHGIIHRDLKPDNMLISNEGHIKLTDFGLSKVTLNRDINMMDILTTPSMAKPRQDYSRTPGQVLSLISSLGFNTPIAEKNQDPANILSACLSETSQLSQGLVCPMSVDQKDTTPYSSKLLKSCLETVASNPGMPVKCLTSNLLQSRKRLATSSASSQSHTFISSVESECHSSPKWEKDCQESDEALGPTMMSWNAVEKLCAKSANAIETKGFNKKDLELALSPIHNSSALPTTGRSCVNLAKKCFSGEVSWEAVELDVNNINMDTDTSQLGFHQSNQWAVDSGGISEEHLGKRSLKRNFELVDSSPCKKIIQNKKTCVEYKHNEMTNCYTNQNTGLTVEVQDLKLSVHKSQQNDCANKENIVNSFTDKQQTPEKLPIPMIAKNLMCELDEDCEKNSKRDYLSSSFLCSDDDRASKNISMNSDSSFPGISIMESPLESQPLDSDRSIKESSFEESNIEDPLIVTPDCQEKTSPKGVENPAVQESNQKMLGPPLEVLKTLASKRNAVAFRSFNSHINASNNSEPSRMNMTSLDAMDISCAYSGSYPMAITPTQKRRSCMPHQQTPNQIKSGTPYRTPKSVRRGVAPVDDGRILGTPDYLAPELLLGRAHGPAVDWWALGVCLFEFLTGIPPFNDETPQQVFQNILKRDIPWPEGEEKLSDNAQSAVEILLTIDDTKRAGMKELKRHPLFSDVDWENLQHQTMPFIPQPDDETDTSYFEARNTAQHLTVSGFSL
thermal stability z-score (lipoamide; [1]): -0.0186 | thermal stability z-score (lipoamide; arsenate co-treatment: none): -0.102 | thermal stability z-score (potassium arsenate): -0.0433

MAT2A (UniProt P31153)
thermal stability z-score (lipoamide; [1]): -0.418 | thermal stability z-score (lipoamide; arsenate co-treatment: none): -0.422 | thermal stability z-score (potassium arsenate): 0.337

MAT2B (UniProt Q9NZL9)
thermal stability z-score (lipoamide; [1]): -0.368 | thermal stability z-score (lipoamide; arsenate co-treatment: none): -0.144 | thermal stability z-score (potassium arsenate): -0.705

MATK (UniProt P42679)
UniProt P42679, sequence (P42679 whole entry): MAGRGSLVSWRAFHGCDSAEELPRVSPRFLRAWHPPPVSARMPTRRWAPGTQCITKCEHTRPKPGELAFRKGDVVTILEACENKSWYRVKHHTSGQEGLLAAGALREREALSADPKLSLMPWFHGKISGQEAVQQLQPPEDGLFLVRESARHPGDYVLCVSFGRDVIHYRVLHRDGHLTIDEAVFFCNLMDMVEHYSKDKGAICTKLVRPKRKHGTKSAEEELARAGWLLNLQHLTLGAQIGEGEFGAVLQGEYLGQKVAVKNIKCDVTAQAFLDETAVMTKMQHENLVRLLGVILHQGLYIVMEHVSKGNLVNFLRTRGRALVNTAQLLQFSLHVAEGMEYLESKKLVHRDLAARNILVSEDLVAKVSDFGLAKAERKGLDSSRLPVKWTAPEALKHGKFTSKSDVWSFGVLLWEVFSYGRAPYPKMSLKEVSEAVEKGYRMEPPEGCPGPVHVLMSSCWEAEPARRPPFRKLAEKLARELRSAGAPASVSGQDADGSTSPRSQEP
thermal stability z-score (lipoamide; [1]): -0.101 | thermal stability z-score (lipoamide; arsenate co-treatment: none): -0.0941 | thermal stability z-score (potassium arsenate): -0.0451

MATR3 (UniProt P43243)
thermal stability z-score (lipoamide; [1]): 2.1 | thermal stability z-score (lipoamide; arsenate co-treatment: none): 0.607 | thermal stability z-score (potassium arsenate): -1.69

MAVS (UniProt Q7Z434)
UniProt Q7Z434, sequence (Q7Z434 whole entry): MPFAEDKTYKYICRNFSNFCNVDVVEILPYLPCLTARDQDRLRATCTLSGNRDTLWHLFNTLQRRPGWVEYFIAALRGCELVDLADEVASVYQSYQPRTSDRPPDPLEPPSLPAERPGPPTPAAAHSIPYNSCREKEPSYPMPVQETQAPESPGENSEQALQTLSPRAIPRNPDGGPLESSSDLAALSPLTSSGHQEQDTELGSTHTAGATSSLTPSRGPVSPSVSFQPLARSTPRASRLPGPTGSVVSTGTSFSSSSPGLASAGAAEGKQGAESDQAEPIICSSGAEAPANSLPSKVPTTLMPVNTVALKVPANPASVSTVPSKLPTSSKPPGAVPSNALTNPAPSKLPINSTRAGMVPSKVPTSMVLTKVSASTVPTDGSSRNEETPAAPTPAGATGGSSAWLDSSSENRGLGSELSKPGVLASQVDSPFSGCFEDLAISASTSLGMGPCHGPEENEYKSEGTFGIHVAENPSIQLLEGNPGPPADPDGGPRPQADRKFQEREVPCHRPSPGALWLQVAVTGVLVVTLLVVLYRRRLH
thermal stability z-score (lipoamide; [1]): 0.0772 | thermal stability z-score (lipoamide; arsenate co-treatment: none): 0.294 | thermal stability z-score (potassium arsenate): -0.963

MAX (UniProt P61244)
UniProt P61244, sequence (P61244 whole entry): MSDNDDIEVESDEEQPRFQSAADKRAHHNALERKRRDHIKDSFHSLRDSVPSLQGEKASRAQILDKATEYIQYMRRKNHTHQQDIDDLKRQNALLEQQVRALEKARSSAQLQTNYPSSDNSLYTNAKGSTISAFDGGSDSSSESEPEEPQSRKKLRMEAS
thermal stability z-score (lipoamide; [1]): 2.75 | thermal stability z-score (lipoamide; arsenate co-treatment: none): 2.05 | thermal stability z-score (potassium arsenate): 2.9

MB21D1 (UniProt Q8N884)
thermal stability z-score (lipoamide; [1]): 0.409 | thermal stability z-score (lipoamide; arsenate co-treatment: none): 0.258 | thermal stability z-score (potassium arsenate): 0.109

MB21D2 (UniProt Q8IYB1)
thermal stability z-score (lipoamide; [1]): 0.116 | thermal stability z-score (lipoamide; arsenate co-treatment: none): -0.198 | thermal stability z-score (potassium arsenate): 0.483

MBD2 (UniProt Q9UBB5)
thermal stability z-score (lipoamide; [1]): 0.0418 | thermal stability z-score (lipoamide; arsenate co-treatment: none): 0.0688 | thermal stability z-score (potassium arsenate): -0.294

MBD3 (UniProt O95983)
thermal stability z-score (lipoamide; [1]): 0.379 | thermal stability z-score (lipoamide; arsenate co-treatment: none): 0.252 | thermal stability z-score (potassium arsenate): -0.483

MBD4 (UniProt O95243)
thermal stability z-score (lipoamide; [1]): -0.0777 | thermal stability z-score (lipoamide; arsenate co-treatment: none): 0.0091 | thermal stability z-score (potassium arsenate): -0.571

MBLAC2 (UniProt Q68D91)
thermal stability z-score (lipoamide; [1]): -0.0603 | thermal stability z-score (lipoamide; arsenate co-treatment: none): 0.367 | thermal stability z-score (potassium arsenate): 0.708

MBNL1 (UniProt Q9NR56)
thermal stability z-score (lipoamide; [1]): -0.368 | thermal stability z-score (lipoamide; arsenate co-treatment: none): -0.277 | thermal stability z-score (potassium arsenate): -0.983

MBOAT7 (UniProt Q96N66)
UniProt Q96N66, sequence (Q96N66 whole entry): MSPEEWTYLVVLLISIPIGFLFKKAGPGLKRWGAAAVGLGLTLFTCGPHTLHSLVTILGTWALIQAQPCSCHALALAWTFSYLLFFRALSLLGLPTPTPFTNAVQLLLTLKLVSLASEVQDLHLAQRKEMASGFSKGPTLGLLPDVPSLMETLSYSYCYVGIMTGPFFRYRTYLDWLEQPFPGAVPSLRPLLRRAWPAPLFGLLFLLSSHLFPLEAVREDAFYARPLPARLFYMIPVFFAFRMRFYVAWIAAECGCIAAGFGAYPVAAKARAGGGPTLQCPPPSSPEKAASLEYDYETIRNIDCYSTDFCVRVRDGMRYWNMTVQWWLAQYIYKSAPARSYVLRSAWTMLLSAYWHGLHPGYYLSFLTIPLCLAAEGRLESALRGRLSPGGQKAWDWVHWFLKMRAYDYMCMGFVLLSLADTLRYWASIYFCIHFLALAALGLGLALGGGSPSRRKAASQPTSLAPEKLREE
thermal stability z-score (lipoamide; [1]): -0.956 | thermal stability z-score (lipoamide; arsenate co-treatment: none): -0.883 | thermal stability z-score (potassium arsenate): -0.732

MBP (UniProt P02686)
thermal stability z-score (lipoamide; [1]): 1.96 | thermal stability z-score (lipoamide; arsenate co-treatment: none): 0.197 | thermal stability z-score (potassium arsenate): 0.222

MBTPS1 (UniProt Q14703)
thermal stability z-score (lipoamide; [1]): -0.923 | thermal stability z-score (lipoamide; arsenate co-treatment: none): -0.876 | thermal stability z-score (potassium arsenate): -0.822

MCAM (UniProt P43121)
thermal stability z-score (lipoamide; [1]): 0.197 | thermal stability z-score (lipoamide; arsenate co-treatment: none): -0.281 | thermal stability z-score (potassium arsenate): 0.512

MCAT (UniProt Q8IVS2)
thermal stability z-score (lipoamide; [1]): 0.313 | thermal stability z-score (lipoamide; arsenate co-treatment: none): 0.162 | thermal stability z-score (potassium arsenate): 1.17

MCC (UniProt P23508)
thermal stability z-score (lipoamide; [1]): -0.1 | thermal stability z-score (lipoamide; arsenate co-treatment: none): -0.0517 | thermal stability z-score (potassium arsenate): -0.0394

MCCC1 (UniProt Q96RQ3)
thermal stability z-score (lipoamide; [1]): -0.187 | thermal stability z-score (lipoamide; arsenate co-treatment: none): -0.191 | thermal stability z-score (potassium arsenate): -0.585

MCCC2 (UniProt Q9HCC0)
thermal stability z-score (lipoamide; [1]): 0.322 | thermal stability z-score (lipoamide; arsenate co-treatment: none): 0.156 | thermal stability z-score (potassium arsenate): -0.197

MCFD2 (UniProt Q8NI22)
thermal stability z-score (lipoamide; [1]): -0.221 | thermal stability z-score (lipoamide; arsenate co-treatment: none): -0.109 | thermal stability z-score (potassium arsenate): -0.565

MCL1 (UniProt Q07820)
thermal stability z-score (lipoamide; [1]): 0.483 | thermal stability z-score (lipoamide; arsenate co-treatment: none): 0.838 | thermal stability z-score (potassium arsenate): 1.27

MCM2 (UniProt P49736)
thermal stability z-score (lipoamide; [1]): -0.75 | thermal stability z-score (lipoamide; arsenate co-treatment: none): -0.391 | thermal stability z-score (potassium arsenate): -0.389

MCM3 (UniProt P25205)
thermal stability z-score (lipoamide; [1]): -0.878 | thermal stability z-score (lipoamide; arsenate co-treatment: none): 0.412 | thermal stability z-score (potassium arsenate): 2.44

MCM4 (UniProt P33991)
thermal stability z-score (lipoamide; [1]): -0.472 | thermal stability z-score (lipoamide; arsenate co-treatment: none): -0.0478 | thermal stability z-score (potassium arsenate): -0.472

MCM5 (UniProt P33992)
thermal stability z-score (lipoamide; [1]): -0.676 | thermal stability z-score (lipoamide; arsenate co-treatment: none): -0.191 | thermal stability z-score (potassium arsenate): 2.47

MCM6 (UniProt Q14566)
thermal stability z-score (lipoamide; [1]): -0.81 | thermal stability z-score (lipoamide; arsenate co-treatment: none): -0.253 | thermal stability z-score (potassium arsenate): -0.919

MCM7 (UniProt P33993)
thermal stability z-score (lipoamide; [1]): -0.43 | thermal stability z-score (lipoamide; arsenate co-treatment: none): -0.294 | thermal stability z-score (potassium arsenate): -0.228

MCMBP (UniProt Q9BTE3)
thermal stability z-score (lipoamide; [1]): -0.129 | thermal stability z-score (lipoamide; arsenate co-treatment: none): -0.0734 | thermal stability z-score (potassium arsenate): 0.409

MCOLN1 (UniProt Q9GZU1)
thermal stability z-score (lipoamide; [1]): -0.724 | thermal stability z-score (lipoamide; arsenate co-treatment: none): -0.559 | thermal stability z-score (potassium arsenate): -1.27

MCTP2 (UniProt Q6DN12)
thermal stability z-score (lipoamide; [1]): -0.192 | thermal stability z-score (lipoamide; arsenate co-treatment: none): -0.145 | thermal stability z-score (potassium arsenate): -0.604

MCTS1 (UniProt Q9ULC4)
thermal stability z-score (lipoamide; [1]): -0.523 | thermal stability z-score (lipoamide; arsenate co-treatment: none): -0.0571 | thermal stability z-score (potassium arsenate): -1.02
